Data from ChEMBL document CHEMBL3861993, “Alternative core development around the tetracyclic indole class of HCV NS5A inhibitors” (Bioorg Med Chem Lett, 2016).

Columns and labels:
[1] = test system: Hepatitis C virus subtype 4a; test: Inhibition of HCV genotype 4a NS5A after 3 day incubation by RT-PCR-cell-based HCV replicon assay
[2] = test system: Hepatitis C virus subtype 3a; test: Inhibition of HCV genotype 3a NS5A after 3 day incubation by RT-PCR-cell-based HCV replicon assay
[3] = test system: Hepatitis C virus subtype 2b; test: Inhibition of HCV genotype 2b NS5A harboring methionine at position 31 after 3 day incubation by RT-PCR-cell-based HCV replicon assay
[4] = test system: T1, Nonstructural protein 5A (Hepatitis C virus), Q5L478 [Y93H]; test: Inhibition of HCV genotype 1a NS5A Y93H mutant after 3 day incubation by RT-PCR-cell-based HCV replicon assay; settings: Hepatitis C virus subtype 1a
T1 sequence (whole entry): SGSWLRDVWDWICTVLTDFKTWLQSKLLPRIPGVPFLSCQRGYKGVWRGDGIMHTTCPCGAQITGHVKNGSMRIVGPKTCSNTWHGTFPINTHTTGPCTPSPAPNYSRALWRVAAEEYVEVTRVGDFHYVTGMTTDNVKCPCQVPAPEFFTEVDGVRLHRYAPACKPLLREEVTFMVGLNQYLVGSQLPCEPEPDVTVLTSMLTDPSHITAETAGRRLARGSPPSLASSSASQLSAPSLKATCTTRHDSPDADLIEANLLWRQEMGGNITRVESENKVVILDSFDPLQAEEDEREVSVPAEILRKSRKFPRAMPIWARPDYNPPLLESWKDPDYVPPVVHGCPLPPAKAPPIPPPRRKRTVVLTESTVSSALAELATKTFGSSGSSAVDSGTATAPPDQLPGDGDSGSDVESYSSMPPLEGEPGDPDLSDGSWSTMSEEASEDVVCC

[5] = test system: Nonstructural protein 5A (Hepatitis C virus), Q5L478 [UNDEFINED MUTATION]; test: Inhibition of HCV genotype 1a NS5A L31V mutant after 3 day incubation by RT-PCR-cell-based HCV replicon assay; settings: Hepatitis C virus subtype 1a
[6] = test system: Hepatitis C virus subtype 1a; test: Inhibition of HCV genotype 1a NS5A after 3 day incubation by RT-PCR-cell-based HCV replicon assay
[7] = Oral bioavailability in rat at 10 mg/kg; type: ADME, organism-based; settings: in vivo
[8] = AUC in rat at 3 mg/kg, iv or 10 mg/kg, po; type: ADME, organism-based; settings: in vivo
[9] = Clearance in rat at 2.5 mg/kg, iv or 5 mg/kg, po; type: ADME, organism-based; settings: in vivo
[10] = Half life in rat at 2.5 mg/kg, iv or 5 mg/kg, po; type: ADME, organism-based; settings: in vivo
[11] = Cmax in rat at 2.5 mg/kg, iv or 5 mg/kg, po; type: ADME, organism-based; settings: in vivo
[12] = AUC in rat at 5 mg/kg, po; type: ADME, organism-based; settings: in vivo
[13] = Oral bioavailability in rat at 5 mg/kg; type: ADME, organism-based; settings: in vivo
[14] = Clearance in rat at 2 mg/kg, iv or 10 mg/kg, po; type: ADME, organism-based; settings: in vivo
[15] = Half life in rat at 2 mg/kg, iv or 10 mg/kg, po; type: ADME, organism-based; settings: in vivo
[16] = Cmax in rat at 2 mg/kg, iv or 10 mg/kg, po; type: ADME, organism-based; settings: in vivo
[17] = AUC in rat at 10 mg/kg, po; type: ADME, organism-based; settings: in vivo

Row | Structure (SMILES) | EC90 [1] | EC90 [2] | EC90 [3] | EC90 [4] | EC90 [5] | EC90 [6] | bioavailability [7] | AUC [8] | clearance [9] | half-life [10] | Cmax [11] | AUC [12] | bioavailability [13] | clearance [14] | half-life [15] | Cmax [16] | AUC [17]
1 | COC(=O)N[C@H](C(=O)N1CCC[C@H]1c1ncc(-c2cc3c4c(c2)CCc2cc(-c5cnc([C@@H]6C[C@@H](F)CN6C(=O)[C@@H](NC(=O)OC)C(C)C)[nH]5)cc(c2-4)CC3)[nH]1)C(C)C | 5.5 nM | 6 nM | > 100 nM | 22.7 nM | 26.2 nM | 0.052 nM | – | – | – | – | – | – | – | – | – | – | –
2 | COC(=O)N[C@H](C(=O)N1CCC[C@H]1c1ncc(-c2ccc3c(c2)OC(C)C2=C3COc3cc(-c4cnc([C@@H]5CCCN5C(=O)[C@@H](NC(=O)OC)C(C)C)[nH]4)ccc32)[nH]1)C(C)C (stereo not given in full) | – | – | 28.1 nM | 55.1 nM | 1.52 nM | 0.028 nM | – | – | – | – | – | – | – | – | – | – | –
3 | COC(=O)N[C@H](C(=O)N1CCC[C@H]1c1ncc(-c2ccc3c(c2)Oc2ccc(-c4cnc([C@@H]5CC(F)(F)CN5C(=O)[C@@H](NC(=O)OC)C(C)C)[nH]4)c4ccn-3c24)[nH]1)C(C)C | – | – | 342 nM | 22 nM | 17.2 nM | 0.02 nM | 15% | 3.98 µM·h | – | – | – | – | – | – | – | – | –
4 | COC(=O)N[C@H](C(=O)N1CCC[C@H]1c1ncc(-c2ccc3c(c2)Oc2ccc(-c4cnc([C@@H]5CCCN5C(=O)[C@@H](NC(=O)OC)C(C)C)[nH]4)c4ccn-3c24)[nH]1)C(C)C | 0.31 nM | 0.69 nM | – | 122 nM | 90.2 nM | 0.06 nM | – | – | – | – | – | – | – | – | – | – | –
5 | COC(=O)N[C@H](C(=O)N1CCC[C@H]1c1nc(-c2ccc3c(c2)O[C@@H](c2ccccc2)n2c-3cc3cc(-c4c[nH]c([C@@H]5CCCN5C(=O)[C@@H](NC(=O)OC)C(C)C)n4)ccc32)c[nH]1)C(C)C | 0.016 nM | 0.12 nM | 11 nM | – | – | 0.006 nM | – | – | – | – | – | – | – | – | – | – | –
6 | COC(=O)N[C@H](C(=O)N1CCC[C@H]1c1ncc(-c2ccc3c(c2)OC(c2cccc(OC)c2)C2=C3COc3cc(-c4cnc([C@@H]5CCCN5C(=O)[C@@H](NC(=O)OC)C(C)C)[nH]4)ccc32)[nH]1)C(C)C (stereo not given in full) | – | 1.93 nM | 4.7 nM | 12 nM | 0.3 nM | 0.039 nM | – | – | – | – | – | – | – | – | – | – | –
7 | COC(=O)N[C@H](C(=O)N1CCC[C@H]1c1ncc(-c2ccc3c(c2)OC(c2ccccc2)C2=C3COc3cc(-c4cnc([C@@H]5CCCN5C(=O)[C@@H](NC(=O)OC)C(C)C)[nH]4)ccc32)[nH]1)C(C)C (stereo not given in full) | 0.17 nM | 0.56 nM | 8.46 nM | > 100 nM | 0.28 nM | 0.017 nM | – | – | – | – | – | – | – | – | – | – | –
8 | COC(=O)N[C@H](C(=O)N1CCC[C@H]1c1ncc(-c2cc3c4c(c2)CCc2cc(-c5cnc([C@@H]6CC(F)(F)CN6C(=O)[C@@H](NC(=O)OC)C(C)C)[nH]5)cc(c2-4)CC3)[nH]1)C(C)C | 0.6 nM | > 10 nM | > 100 nM | 30.2 nM | 20.7 nM | 0.07 nM | – | – | – | – | – | – | – | – | – | – | –
9 | COC(=O)N[C@H](C(=O)N1CCC[C@H]1c1ncc(-c2ccc3c(c2)OC(C2CC2)C2=C3COc3cc(-c4cnc([C@@H]5CCCN5C(=O)[C@@H](NC(=O)OC)C(C)C)[nH]4)ccc32)[nH]1)C(C)C (stereo not given in full) | – | 10.7 nM | 5.2 nM | 41 nM | 1.7 nM | 0.063 nM | – | – | – | – | – | – | – | – | – | – | –
10 | COC(=O)N[C@H](C(=O)N1CCC[C@H]1c1ncc(-c2cc3c4c(c2)CCc2cc(-c5cnc([C@@H]6CCCN6C(=O)[C@@H](NC(=O)OC)C(C)C)[nH]5)cc(c2-4)CC3)[nH]1)C(C)C | 0.8 nM | 2 nM | > 100 nM | 57 nM | 18.9 nM | 0.05 nM | – | – | – | – | – | – | – | – | – | – | –
11 | COC(=O)N[C@H](C(=O)N1CCC[C@H]1c1ncc(-c2ccc3c(c2)OCc2c-3c(=O)oc3cc(-c4cnc([C@@H]5CCCN5C(=O)[C@@H](NC(=O)OC)C(C)C)[nH]4)ccc23)[nH]1)C(C)C | 0.18 nM | > 1 nM | 113 nM | > 50 nM | 58.6 nM | 0.01 nM | – | – | – | – | – | – | – | – | – | – | –
12 | COC(=O)N[C@H](C(=O)N1CCC[C@H]1c1ncc(-c2ccc3c(c2)OCn2c-3cc3cc(-c4cnc([C@@H]5CCCN5C(=O)[C@@H](NC(=O)OC)C(C)C)[nH]4)ccc32)[nH]1)C(C)C | 0.18 nM | > 1 nM | 75.7 nM | > 100 nM | 6.5 nM | 0.02 nM | – | – | – | – | – | – | – | – | – | – | –
13 | COC(=O)N[C@H](C(=O)N1CCC[C@H]1c1ncc(-c2ccc3c(c2)Oc2ccc(-c4cnc([C@@H]5CCCN5C(=O)[C@@H](NC(=O)OC)C(C)C)[nH]4)c4occ-3c24)[nH]1)C(C)C | 0.31 nM | 0.32 nM | 100 nM | 132 nM | 100 nM | 0.03 nM | – | – | 8.5 mL/min/kg | 1.9 h | 830 nM | 4.28 µM·h | 34% | – | – | – | –
14 | COC(=O)N[C@H](C(=O)N1CCC[C@H]1c1ncc(-c2ccc3c(c2)Oc2ccc(-c4cnc([C@@H]5CCCN5C(=O)[C@@H](NC(=O)OC)C(C)C)[nH]4)c4c2N3CCC4)[nH]1)C(C)C | 4.81 nM | > 10 nM | 100 nM | 441 nM | 100 nM | > 0.1 nM | – | – | – | – | – | – | – | – | – | – | –
15 | COC(=O)N[C@H](C(=O)N1CCC[C@H]1c1ncc(-c2ccc3c(c2)Oc2ccc(-c4cnc([C@@H]5CCCN5C(=O)[C@@H](NC(=O)OC)C(C)C)[nH]4)c4cnn-3c24)[nH]1)C(C)C | 0.76 nM | 1.59 nM | 100 nM | 124 nM | 62.3 nM | 0.04 nM | – | – | – | – | – | – | – | – | – | – | –
16 | COC(=O)N[C@H](C(=O)N1CCC[C@H]1c1ncc(-c2ccc3c(c2)Oc2ccc(-c4cnc([C@@H]5CCCN5C(=O)[C@@H](NC(=O)OC)C(C)C)[nH]4)c4c2N3CCO4)[nH]1)C(C)C | 2.48 nM | 4.69 nM | 100 nM | 361 nM | 100 nM | 0.005 nM | – | – | – | – | – | – | – | – | – | – | –
17 | COC(=O)N[C@H](C(=O)N1CCC[C@H]1c1ncc(-c2ccc3c(c2)Oc2ccc(-c4cnc([C@@H]5CCCN5C(=O)[C@@H](NC(=O)OC)C(C)C)[nH]4)c4c2N3CC4)[nH]1)C(C)C | 8.17 nM | 4.42 nM | – | 685 nM | 100 nM | > 0.1 nM | – | – | – | – | – | – | – | – | – | – | –
18 | COC(=O)N[C@H](C(=O)N1CCC[C@H]1c1ncc(-c2ccc3c(c2)OCC2=C3COc3cc(-c4cnc([C@@H]5CCCN5C(=O)[C@@H](NC(=O)OC)C(C)C)[nH]4)ccc32)[nH]1)C(C)C | 0.18 nM | > 1 nM | 24.7 nM | > 100 nM | 0.33 nM | 0.01 nM | 14% | – | – | – | – | – | – | 5.3 mL/min/kg | 2.7 h | 660 nM | 5.57 µM·h
